Here are results for 1 sequence from US10183058B2, “Method of preventing or reducing the progression of prostate cancer” (Nymox Corporation, priority 2016, dated 2019).

Ends that are not written are not given here.

This assay concerns prostate cancer. Put plainly: Clinical studies in men with BPH given SEQ ID NO. 66 by intraprostatic injection; incidence of clinically or biopsy detected prostate cancer. It is filed as in vivo, human (men). The note with it: 2.5 mg intraprostatic injection; for Incidence of cancer (Gleason Grade >= 7): follow-up up to 6.5 years, compared to known expected incidence of 5-6%. The method, then: In a series of clinical studies undertaken between 2009 and 2016 a total of 628 men with benign prostatic hyperplasia (BPH) received SEQ ID NO. 66 (Ile-Asp-Gln-Gln-Val-Leu-Ser-Arg-Ile-Lys-Leu-Glu-Ile-Lys-Arg-Cys-Leu), 2.5 mg given by intraprostatic injection into the transition zone of the prostate to treat the symptoms of BPH and were subsequently followed clinically and by laboratory testing. After intervals up to 6.5 years after injection, all available patients were followed urologically at specialized clinics with investigation of BPH symptoms and events of disease progression and safety assessments. All cases of clinically or biopsy detected prostate cancer were documented. The incidence of new biopsy or surgically proven prostate cancer after 12 months and overall was compared to the incidence of detected prostate cancer in large long-term clinical trials in the medical literature. Although a) the treatments were for BPH; b) the injections were directed at the central part of the prostate where cancer is less common; and c) the injections consisted of only a single or two injection(s) of SEQ ID NO. […]
In a series of clinical studies undertaken between 2009 and 2016, a total of 816 men with benign prostatic hyperplasia (BPH) received SEQ ID NO. […] All cases of clinically or biopsy detected prostate cancer were documented. The incidence of new biopsy or surgically proven prostate cancer after 12 months and overall was compared to the incidence of detected prostate cancer in the patients receiving the sterile saline solution (control). […]
In a series of clinical studies undertaken between 2009 and 2016 a total of 628 men with benign prostatic hyperplasia (BPH) received SEQ ID NO. […] All cases of clinically or biopsy detected prostate cancer were documented. The incidence of new biopsy or surgically proven prostate cancer of Gleason Grade>=7 was compared to the incidence of detected prostate cancer in large long-term clinical trials in the medical literature. […]

Take IDQQVLSRIKLEIKRCL [SEQ ID NO: 66]: the “Incidence of cancer (Gleason Grade >= 7)” value was less than 0.3%. For the same sequence, the “incidence of prostate cancer (after 12 months and overall)” value (compared to known expected incidence of 2-25%) was 0-1.3%. Besides, the “Incidence of cancer (Gleason Grade >= 7)” value (listed as SEQ ID NO. 66) was less than 0.3%.
